Source: patent US20170340629A1 (AB SCIENCE, priority 2014, published 2017)
Counter-ions that a name gives are not always drawn. Like-named read-outs stand apart in the source and are kept apart here. Values belong to the compound of their own block, whether it stands above or below them.

Columns and labels:
[1] = system: MDAMB231; assay: WST-1 proliferation/viability assay, MDAMB231; format: cell-based, human; conditions: 72 h, 1% FCS
Description: (§1) Breast cancer cell lines (generous gift from Dr. […], UMR 599 INSERM, Marseille, France) were cultured as monolayers in RPMI 1640 medium, containing L-glutamine supplemented with 100 U/mL penicillin and 100 μg/mL streptomycin, and 10% v/v heat-inactivated fetal calf serum (AbCys Lot S02823S1800) under standard culture conditions (5% CO2, 95% air in humidified chamber at 37° C.). During proliferation assay, all cells were grown in medium containing 1% FCS. Colorimetric cell proliferation and viability assay (reagent WST-1 purchased from Roche cat N^o 1644807)-Cells were washed once and resuspended in RPMI 1% FCS. Cells were plated at 1×10^4/50 μl per well of a 96 well plate. […] Treatment was started by the addition of 50 μl of a 2× concentrated drug solution to a final volume of 100 μl. […] After incubating for 72 hours at 37° C., 10 μl of a 1⁄2 dilution of WST-1 reagent was added to each well and the plates were returned to the incubator for an additional 4 hours. The absorbance of the samples was measured at 490 nm using an EL800 Universal microplate reader (Bio-Tek Instruments Inc.). A background control without cells was used as a blank. The positive control of the assay corresponds to the cell proliferation obtained in the absence of drug treatment (100% proliferation). Each sample was done in duplicate, the absorbance values were transferred to an excel file, the average and standard deviation of the duplicates were calculated and expressed as a percentage of the proliferation obtained in absence of treatment. The results presented are representative of a minimum of four experiments.

[2] = system: HCC1937; assay: WST-1 proliferation/viability assay, HCC1937; format: cell-based; conditions: Homo sapiens, doxorubicin single agent, 72 h, 1% FCS
Description: as §1, with “The positive control of the assay corresponds to the cell proliferation obtained in the absence of drug treatment (100% proliferation).” left out, “The results presented are representative of a minimum of four experiments.” left out

[3] = system: MDAMB134; assay: WST-1 proliferation/viability assay, MDAMB134; format: cell-based, human; conditions: 72 h, 1% FCS
Description: as §1

[4] = system: MCF-7; assay: WST-1 proliferation/viability assay, MCF-7; format: cell-based; conditions: Homo sapiens, 72 h, 1% FCS
Description: as §1, with “The positive control of the assay corresponds to the cell proliferation obtained in the absence of drug treatment (100% proliferation).” left out, “The results presented are representative of a minimum of four experiments.” left out

[5] = system: TNBC (metastatic or locally advanced); conditions: cisplatin alone (N = 58); Baselga et al. 2013; cited from earlier work
[6] = system: breast cancer cell lines; assay: WST-1 proliferation assay, masitinib mesilate single agent; format: cell-based; conditions: Homo sapiens, 1% FCS
Description: Breast cancer cell lines (generous gift from Dr. […], UMR 599 INSERM, Marseille, France) were cultured as monolayers in RPMI 1640 medium, containing L-glutamine supplemented with 100 U/mL penicillin and 100 μg/mL streptomycin, and 10% v/v heat-inactivated fetal calf serum (AbCys Lot S02823S1800) under standard culture conditions (5% CO2, 95% air in humidified chamber at 37° C.). During proliferation assay, all cells were grown in medium containing 1% FCS. Colorimetric cell proliferation and viability assay (reagent WST-1 purchased from Roche cat N^o 1644807)-Cells were washed once and resuspended in RPMI 1% FCS. Cells were plated at 1×10^4/50 μl per well of a 96 well plate. […] Treatment was started by the addition of 50 μl of a 2× concentrated drug solution to a final volume of 100 μl. […] The absorbance of the samples was measured at 490 nm using an EL800 Universal microplate reader (Bio-Tek Instruments Inc.). […] Each sample was done in duplicate, the absorbance values were transferred to an excel file, the average and standard deviation of the duplicates were calculated and expressed as a percentage of the proliferation obtained in absence of treatment. […] Breast cancer cell lines were first analyzed for their sensitivity to masitinib mesilate when used as single agent.

[7] = system: BT474; assay: WST-1 proliferation/viability assay, BT474; format: cell-based, human; conditions: 72 h, 1% FCS
Description: as §1, with “The positive control of the assay corresponds to the cell proliferation obtained in the absence of drug treatment (100% proliferation).” left out, “The results presented are representative of a minimum of four experiments.” left out

[8] = system: Mia Paca-2 cells; assay: WST-1 proliferation/survival assay, gemcitabine-resistant Mia Paca-2; format: cell-based; conditions: for IC50: Homo sapiens, 72 hours, 1% FCS, read-out: IC50 single agent; for sensitization of cells to gemcitabine by TKI pre-incubation: TKI 5 or 10 μM overnight before gemcitabine, FIG. 2; for cell proliferation, single agent: TKI 10 μM
Description: The antiproliferative activity of each TKI and gemcitabine is assessed using a WST-1 proliferation/survival assay in growth medium containing 1% fetal calf serum (FCS). Treatment is started with the addition of the relevant drug. For combination treatment (TKI plus gemcitabine), cells are re-suspended in medium (1% FCS) containing 0, 5 or 10 μM of the relevant TKI and incubated overnight before gemcitabine addition. After 72 hours, WST-1 reagent is added and incubated with the cells for 4 hours before absorbance measurement at 450 nm in an EL800 Universal Microplate Reader (Bio-Tek Instruments Inc.). Media alone is used as a blank and proliferation in the absence of drug served as a positive control. A TKI sensitization index is calculated as the ratio of the IC50 of gemcitabine against the IC50 of the drug combination.

[9] = system: BT20; assay: WST-1 proliferation/viability assay, BT20; format: cell-based; conditions: Homo sapiens, BT-20, gemcitabine single agent, 72 h, 1% FCS
Description: as §1, with “The positive control of the assay corresponds to the cell proliferation obtained in the absence of drug treatment (100% proliferation).” left out, “The results presented are representative of a minimum of four experiments.” left out

[10] = system: CMT-U309 canine mammary tumor cell line; assay: MTT proliferation assay and combination index, CMT-U309; conditions: for Viability (%): 72 hours incubation, doses at single-agent IC50 concentrations; for IC50: single agent
Description: (§2) Two canine mammary tumor (CMT) cell lines were evaluated, CMT-U27 and CMT-U309. CMT-U27 is a highly metastatic canine mammary carcinoma cell line while CMT-U309 is a non-metastatic spindle-cell cell line. Cell lines were maintained in Dulbecco's modified Eagles Medium-F12 supplemented with 10% fetal bovine serum and antimicrobials (penicillin [100 U/mL] and streptomycin [0.1 mg/mL]). Cell lines were maintained in a humidified atmosphere of 5% carbon dioxide at 37° C.
(§3) Solutions were prepared newly prepared from the stock solution for each experiment.
(§4) Cells were seeded at a density of 1.0×10^4 cells/well (final volume, 100 μL/well) in three replicates. […] At the end of treatment, 10 μl of MTT solution (5 mg/ml in PBS) was added to each well. The plates were incubated for 4 hours in a humidified atmosphere at 37° C. with 5% CO2. After that incubation, cell proliferation was assessed by use of a commercial cell proliferation MTT [3-(4,5-dimethylthiazol-2-yl)-2,5-diphenyltrazolium bromide] kit. All samples were assayed in triplicate, and the mean for each experiment was calculated. The effect of each compound on growth inhibition was assessed as percent cell viability where vehicle-treated cells were taken as 100% viable. Cell proliferation was expressed as a percentage of the control wells by use of the following equation: (absorbance of sample wells/absorbance of control wells)×100. The mean of triplicate experiments for each dose was used to calculate IC50 as determined by CalcuSyn software.

[11] = system: CMT-U27 canine mammary carcinoma cell line; assay: MTT proliferation assay and combination index, CMT-U27; format: cell-based; conditions: for IC50: single agent, read-out: IC50 growth inhibitory activity
Description: as §2, §3, §4

[12] = system: metastatic or locally advanced breast cancer (except triple negative); conditions: patients resistant to at least one first-line chemotherapy; literature (Miller 2005; Brodowicz 2000); cited from earlier work
[13] = system: relapsed or refractory inflammatory breast cancer; conditions: lapatinib 1500 mg/day; 126 patients; Kaufman et al. 2009; cited from earlier work
[14] = carboplatin single agent, read-out: IC50 CPT
[15] = Canis lupus familiaris, 24 h, read-out: IC50 growth inhibitory activity, CMT-U309, 24 h
[16] = Canis lupus familiaris, 48 h, read-out: IC50 growth inhibitory activity, CMT-U309, 48 h
[17] = Canis lupus familiaris, 72 h, read-out: IC50 growth inhibitory activity, CMT-U309, 72 h

IC50 ([1]; Homo sapiens, MDA-MB-231, doxorubicin single agent, read-out: IC50 DOX): 1 µM | IC50 [2]: 1 µM | IC50 ([3]; Homo sapiens, doxorubicin single agent, read-out: IC50 DOX): 1 µM | IC50 ([4]; MCF7, doxorubicin single agent, read-out: IC50 DOX): 1 µM
SMILES: COc1cccc2c1C(=O)c1c(O)c3c(c(O)c1C2=O)C[C@@](O)(C(=O)CO)C[C@@H]3O[C@H]1C[C@H](N)[C@H](O)[C@H](C)O1 [DOX, doxorubicin]

SMILES: N.N.[Cl][Pt][Cl] [Cisplatin, cisplatin]
Median OS (months) [5]: 9.4 months

IC50 [6]: > 6 µM
SMILES: Cc1ccc(NC(=O)c2ccc(CN3CCN(C)CC3)cc2)cc1Nc1nc(-c2cccnc2)cs1 [Masitinib mesilate]

SMILES: N.N.O=C([O-])C1(C(=O)[O-])CCC1.[Pt+2] [CPT, carboplatin]
IC50 [1, 14]: > 100 µM | IC50 [3, 14]: > 100 µM | IC50 [7, 14]: > 100 µM

IC50 ([1]; Homo sapiens, MDA-MB-231, gemcitabine single agent, read-out: IC50 GCB): 100 µM | IC50 ([3]; Homo sapiens, gemcitabine single agent, read-out: IC50 GCB): 100 µM | IC50 ([7]; Homo sapiens, BT-474, gemcitabine single agent, read-out: IC50 GCB): 100 µM | IC50 [9]: 50 µM
SMILES: Nc1ccn([C@@H]2O[C@H](CO)[C@@H](O)C2(F)F)c(=O)n1 [GCB, 2′,2′,-dofluoro-2′,-deoxycytidine]
IC50 [8]: > 10 µM

IC50 ([1]; Homo sapiens, MDA-MB-231, irinotecan single agent, read-out: IC50 CPT-11): 30 µM | IC50 ([3]; Homo sapiens, irinotecan single agent, read-out: IC50 CPT-11): 30 µM | IC50 ([4]; MCF7, irinotecan single agent, read-out: IC50 CPT-11): 100 µM
SMILES: CCc1c2c(nc3ccc(OC(=O)N4CCC(N5CCCCC5)CC4)cc13)-c1cc3c(c(=O)n1C2)COC(=O)[C@]3(O)CC [CPT-11, irinotecan]

SMILES: O=C1c2c(O)ccc(O)c2C(=O)c2c(NCCNCCO)ccc(NCCNCCO)c21 [Mitoxantrone, Mitoxantrone dihydrochloride]
Viability (%) ([10]; CMT-U309): 56.8% | IC50 [10, 15]: 2.77 µM | IC50 [10, 16]: 1 µM | IC50 [10, 17]: 0.75 µM | IC50 ([10]; read-out: IC50 growth inhibitory activity, CMT-U309, 72 h, dihydrochloride): 0.751 µM | IC50 ([11]; 72 h, listed as Mixoxantrone, dihydrochloride): 0.219 µM | IC50 ([11]; Canis lupus familiaris, 24 h): 3.09 µM | IC50 ([11]; Canis lupus familiaris, 48 h): 1.11 µM | IC50 ([11]; Canis lupus familiaris, 72 h): 0.22 µM

IC50 [10, 15]: 15 µM | IC50 [10, 16]: 8.87 µM | IC50 [10, 17]: 8.5 µM | IC50 ([10]; read-out: IC50 growth inhibitory activity, CMT-U309, 72 h): 8.54 µM | IC50 ([11]; 72 h): 7.5 µM | IC50 ([11]; Canis lupus familiaris, 24 h): 9.13 µM | IC50 ([11]; Canis lupus familiaris, 48 h): 7.61 µM | IC50 ([11]; Canis lupus familiaris, 72 h): 7.5 µM
SMILES: Cc1ccc(NC(=O)c2ccc(CN3CCN(C)CC3)cc2)cc1Nc1nc(-c2cccnc2)cs1 [Masitinib, 4-(4-methylpiperazin-1-ylmethyl)-N-[4-methyl-3-(4-pyridin-3ylthiazol-2-ylamino)phenyl]benzamide]
Viability (%) ([10]; CMT-U309): 66.0% | IC50 [8]: 5 to 10 µM | sensitization of cells to gemcitabine by TKI pre-incubation [8]: significantly sensitized | cells remaining resistant ([8]; masitinib concentration of 10 μM, FIG. 1): more than 50% | Viability (%) ([11]; 72 hours incubation, doses at single-agent IC50 concentrations): 77.3%

SMILES: Cc1ccc(NC(=O)c2ccc(CN3CCN(C)CC3)cc2)cc1Nc1nccc(-c2cccnc2)n1 [imatinib]
cell proliferation, single agent ([8]; FIG. 1): only weakly inhibited | sensitization of cells to gemcitabine by TKI pre-incubation [8]: does not result in an increased response

SMILES: CCCCCOC(=O)Nc1nc(=O)n([C@@H]2O[C@H](C)[C@@H](O)[C@H]2O)cc1F [capecitabine]
Median OS (months), benchmark single agent (L2) [12]: 14.5 months

SMILES: CS(=O)(=O)CCNCc1ccc(-c2ccc3ncnc(Nc4ccc(OCc5cccc(F)c5)c(Cl)c4)c3c2)o1 [Lapatinib, lapatinib]
Median overall survival [13]: 11.2 months

SMILES: Cc1nc(Nc2ncc(C(=O)Nc3c(C)cccc3Cl)s2)cc(N2CCN(CCO)CC2)n1 [dasatinib]
cell proliferation, single agent ([8]; FIG. 1): affected by a similar extent | sensitization of cells to gemcitabine by TKI pre-incubation [8]: does not result in an increased response | cell proliferation at low concentrations ([8]; concentrations superior to 0.1 μM): partial inhibition
